Experimental findings from US20220220135A1 (BAR-ILAN UNIVERSITY, priority 2019, published 2022) are described below.

A word on the inhibition: it is the change of the read-out against control, counted positive when it falls.

The target of one assay is T1, human NPP3 (Homo sapiens, UniProt O14638).
T1 sequence (O14638 1-875): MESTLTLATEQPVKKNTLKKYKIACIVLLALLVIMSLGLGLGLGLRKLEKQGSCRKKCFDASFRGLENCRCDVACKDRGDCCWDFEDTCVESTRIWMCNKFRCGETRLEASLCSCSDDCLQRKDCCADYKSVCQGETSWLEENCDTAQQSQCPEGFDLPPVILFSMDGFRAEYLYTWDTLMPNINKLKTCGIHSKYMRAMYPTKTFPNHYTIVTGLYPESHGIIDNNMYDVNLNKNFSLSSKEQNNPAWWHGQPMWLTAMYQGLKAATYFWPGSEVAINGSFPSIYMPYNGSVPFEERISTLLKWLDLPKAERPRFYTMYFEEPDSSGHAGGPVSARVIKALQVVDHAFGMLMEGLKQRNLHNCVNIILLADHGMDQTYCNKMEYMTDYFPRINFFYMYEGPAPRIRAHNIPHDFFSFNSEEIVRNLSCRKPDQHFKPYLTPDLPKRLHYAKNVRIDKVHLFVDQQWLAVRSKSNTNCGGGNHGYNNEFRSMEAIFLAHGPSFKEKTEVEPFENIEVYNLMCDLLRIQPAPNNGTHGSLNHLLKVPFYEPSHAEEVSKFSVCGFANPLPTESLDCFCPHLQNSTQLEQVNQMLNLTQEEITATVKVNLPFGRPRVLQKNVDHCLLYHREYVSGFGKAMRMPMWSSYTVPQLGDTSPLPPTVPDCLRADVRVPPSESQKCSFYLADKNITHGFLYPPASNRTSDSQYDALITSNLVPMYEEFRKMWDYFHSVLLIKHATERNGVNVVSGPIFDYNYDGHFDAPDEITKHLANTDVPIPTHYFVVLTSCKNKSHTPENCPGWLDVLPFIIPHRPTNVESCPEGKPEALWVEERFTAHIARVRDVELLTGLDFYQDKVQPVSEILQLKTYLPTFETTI
The experiment in a line: Inhibition of human NPP3, pNP-TMP as substrate (analogues 9-12). Type of assay: biochemical. Particulars: analogue at 100 μM; pNP-TMP 100 μM as substrate. The protocol: FIG. 2: Inhibition of NTPDases and NPPs by analogues 9-12 using as substrates ATP (100 μM) for NTPDase1,2,3,8 and pNP-TMP (100 μM) for NPP1,3 (Panel A); and ATP (100 μM) was used as the substrate for NPP1 (Panel B);
At least 2 independent experiments were performed. In panel A, the activity with 100 μM ATP was set as 100%, which was 287±31, 395±67, 278±22, 119±26 nmol of Pi·min−1·mg of protein−1 for human NTPDase1, -2, -3 and -8, respectively, and the activity with 100 μM pNP-TMP was set as 100% which was 67±5, 21±1 nmol of p-nitrophenol·min−1·mg of protein−1 for human NPP1 and NPP3, respectively. In panel B, the activity with 100 μM ATP was set as 100% which was 34±7 nmol of PPi·min−1·mg of protein−1 for NPP1.

The next assay has as its target T2, human P2Y4R (Homo sapiens, UniProt P51582).
T2 construct: expressed in transfected cells; host or cells: 1321N1 astrocytoma cells
Put plainly: Calcium mobilization in 1321N1 astrocytoma cells expressing human P2Y4R. It counts as cell-based. The procedure:
Given the structural resemblance of 106-109 to the natural ligands of P2Y receptors, adenine and uracil nucleotides as natural substrates, were assessed for agonist potency on the human P2Y1, P2Y2, P2Y4, and P2Y6 receptor. To evaluate NPP1 selectivity of analogs 106-109, they were tested for their ability to activate of the uridine-nucleotide sensitive human recombinant P2Y1,2,4,6-receptors. The agonist potencies of this series of nucleotide analogues on the Gq protein-coupled human P2Y1R, P2Y2R, P2Y4R, and P2Y6R was determined by assessing its ability to induce calcium mobilization in stably transfected 1321N1 astrocytoma cells (Table 8). The nucleotide analogues were found in calcium mobilization assays to activate the P2Y2R with mid-micromolar potency.

A further assay addresses T3, human CD39 (Homo sapiens, UniProt P49961).
T3 sequence (P49961 1-510): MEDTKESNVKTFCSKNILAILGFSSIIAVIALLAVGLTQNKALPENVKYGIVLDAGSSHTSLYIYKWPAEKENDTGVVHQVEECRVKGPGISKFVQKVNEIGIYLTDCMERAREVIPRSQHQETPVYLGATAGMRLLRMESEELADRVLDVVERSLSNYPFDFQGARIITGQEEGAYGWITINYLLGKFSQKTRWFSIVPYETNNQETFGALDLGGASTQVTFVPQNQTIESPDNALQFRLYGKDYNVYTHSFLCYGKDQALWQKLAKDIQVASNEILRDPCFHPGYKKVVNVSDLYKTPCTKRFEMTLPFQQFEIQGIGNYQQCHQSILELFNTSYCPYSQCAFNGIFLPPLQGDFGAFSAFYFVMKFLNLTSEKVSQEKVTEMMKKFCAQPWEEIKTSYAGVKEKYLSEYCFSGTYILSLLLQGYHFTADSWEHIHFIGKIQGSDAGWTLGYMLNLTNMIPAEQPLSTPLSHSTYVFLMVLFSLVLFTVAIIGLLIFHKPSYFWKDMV
Put plainly: Inhibition of human CD39, 0.5 μM PSB-170621A as substrate. It counts as biochemical. Particulars: 0.5 μM PSB-170621A as a substrate; n = 3.

T2 sequence (P51582 whole entry): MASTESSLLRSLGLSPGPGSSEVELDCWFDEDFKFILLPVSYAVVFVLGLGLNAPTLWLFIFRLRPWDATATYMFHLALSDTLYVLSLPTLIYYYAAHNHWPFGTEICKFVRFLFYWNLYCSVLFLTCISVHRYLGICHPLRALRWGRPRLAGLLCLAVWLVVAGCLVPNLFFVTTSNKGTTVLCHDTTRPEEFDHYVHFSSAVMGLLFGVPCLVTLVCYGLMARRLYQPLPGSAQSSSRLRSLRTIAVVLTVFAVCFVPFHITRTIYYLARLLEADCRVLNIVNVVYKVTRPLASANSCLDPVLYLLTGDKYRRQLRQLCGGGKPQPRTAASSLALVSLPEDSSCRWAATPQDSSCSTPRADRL

For `O=c1ccn([C@@H]2O[C@H](COP(=S)(S)OP(=O)(O)OP(=O)(O)O)[C@@H](O)[C@H]2O)c(=O)[nH]1` (some centres unmarked) [Analogue 10], at human NPP3, the “inhibition of human NPP3” value is “no inhibition”.
For `O=c1ccn([C@@H]2O[C@H](COP(=S)(S)OP(=O)(O)CP(=O)(O)O)[C@@H](O)[C@H]2O)c(=O)[nH]1` (some centres unmarked) [Analogue 11], on human NPP3, the inhibition at 100 µM amounted to 21%.
The same measure, in the same setting: under `O=c1ccn([C@@H]2O[C@H](COP(=S)(S)OP(=O)(O)OP(=O)(O)OP(=S)(S)OC[C@H]3O[C@@H](n4ccc(=O)[nH]c4=O)[C@H](O)[C@@H]3O)[C@@H](O)[C@H]2O)c(=O)[nH]1` (some centres unmarked) [Analogue 12] stands 27%.
Turning to `Nc1ncnc2c1ncn2COCCOP(=S)(S)OP(=O)(O)O` (centres unmarked) [compound 106], the “% activation at 10 μM, P2Y4” value on human P2Y4R came out at 0 ± 0%. Moreover, the “% inhibition ± SEM, human CD39” value at human CD39 is 14 ± 1%.
